Test results published in PubChem BioAssay AID328 (DTP/NCI, 2004).
Values joined by “and” are separate entries in the source; they are usually repeats but may differ in a detail not shown here. Identical values can stand only once. Toxic doses and inconclusive results are not listed. The calls were made as follows: active = survival T/C of 150% or more; inactive = T/C below 125% in these data.

System: BDF1 mice, P388 leukemia ip, median survival T/C
Experiment: NCI In Vivo Anticancer Drug Screen. Data for tumor model P388 Leukemia (intraperitoneal) in B6D2F1 (BDF1) mice
Settings: endpoint: median survival time, higher = longer survival
Summary of the method: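 Each value expresses how treatment altered survival: treated-mouse outcome over vehicle-mouse outcome, both groups bearing the transplanted tumour.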

[1] = dose: 100.0 mg/kg/injection, schedule: Q01DX009 (ip), vehicle: saline with Tween-80
[2] = dose: 100.0 mg/kg/injection, schedule: Q04DX003 (ip), vehicle: saline with Tween-80
[3] = dose: 200.0 mg/kg/injection, schedule: Q04DX003 (ip), vehicle: saline with Tween-80
[4] = dose: 400.0 mg/kg/injection, schedule: Q04DX003 (ip), vehicle: saline with Tween-80

Measured: T/C

NC(=O)OCc1c(O)c2c(c(O)c1COC(N)=O)C(=O)C=CC2=O
inactive: dose: 12.5 mg/kg/injection, schedule: Q01DX009 (ip), vehicle: water 111 % of control | dose: 12.5 mg/kg/injection, schedule: Q04DX003 (ip), vehicle: water 100 % of control | dose: 25.0 mg/kg/injection, schedule: Q01DX009 (ip), vehicle: water 92 % of control | dose: 25.0 mg/kg/injection, schedule: Q04DX003 (ip), vehicle: water 104 % of control | dose: 50.0 mg/kg/injection, schedule: Q01DX009 (ip), vehicle: water 104 % of control | dose: 50.0 mg/kg/injection, schedule: Q04DX003 (ip), vehicle: water 101 % of control | dose: 100.0 mg/kg/injection, schedule: Q04DX003 (ip), vehicle: water 100 % of control | dose: 200.0 mg/kg/injection, schedule: Q04DX003 (ip), vehicle: water 102 % of control and 113 % of control | dose: 300.0 mg/kg/injection, schedule: Q04DX003 (ip), vehicle: water 95 % of control | dose: 400.0 mg/kg/injection, schedule: Q04DX003 (ip), vehicle: water 108 % of control

CCOC(=O)C1=C(Nc2ccc([N+](=O)[O-])cc2)CCCC1
inactive: dose: 50.0 mg/kg/injection, schedule: Q01DX009 (ip), vehicle: saline 87 % of control

O=C(O)C(=O)c1ccc(-c2ccccc2)cc1
inactive: dose: 25.0 mg/kg/injection, schedule: Q01DX009 (ip), vehicle: saline with Tween-80 90 % of control | dose: 50.0 mg/kg/injection, schedule: Q01DX009 (ip), vehicle: saline with Tween-80 100 % of control | [1] 113 % of control | dose: 150.0 mg/kg/injection, schedule: Q01DX009 (ip), vehicle: saline with Tween-80 110 % of control

CC12CCC(C=C1N1CCOCC1)C(C)(C)O2 (stereo unspecified)
inactive: dose: 50.0 mg/kg/injection, schedule: Q01DX005 (ip), vehicle: saline 114 % of control | dose: 100.0 mg/kg/injection, schedule: Q01DX005 (ip), vehicle: saline 122 % of control | dose: 200.0 mg/kg/injection, schedule: Q01DX005 (ip), vehicle: saline 111 % of control

COc1cc([N+](=O)[O-])ccc1N
inactive: [2] 100 % of control

CCP(CC)c1ccccc1
inactive: dose: 100.0 mg/kg/injection, schedule: Q01DX009 (sc), vehicle: olive oil, sesame oil, peanut oil 96 % of control | dose: 100.0 mg/kg/injection, schedule: Q04DX003 (sc), vehicle: olive oil, sesame oil, peanut oil 92 % of control | dose: 200.0 mg/kg/injection, schedule: Q01DX009 (sc), vehicle: olive oil, sesame oil, peanut oil 96 % of control | dose: 200.0 mg/kg/injection, schedule: Q04DX003 (sc), vehicle: olive oil, sesame oil, peanut oil 100 % of control | dose: 400.0 mg/kg/injection, schedule: Q01DX009 (sc), vehicle: olive oil, sesame oil, peanut oil 88 % of control | dose: 400.0 mg/kg/injection, schedule: Q04DX003 (sc), vehicle: olive oil, sesame oil, peanut oil 92 % of control

CCCCCCCCCCCc1n(Cc2ccccc2)cc[n+]1C
inactive: dose: 0.75 mg/kg/injection, schedule: Q01DX009 (ip), vehicle: saline 117 % of control | dose: 1.5 mg/kg/injection, schedule: Q01DX009 (ip), vehicle: saline 114 % of control | dose: 1.5 mg/kg/injection, schedule: Q04DX003 (ip), vehicle: saline 100 % of control | dose: 3.0 mg/kg/injection, schedule: Q01DX009 (ip), vehicle: saline 114 % of control | dose: 3.0 mg/kg/injection, schedule: Q04DX003 (ip), vehicle: saline 115 % of control

O=C(Nc1ccccc1Cl)OCC#CCOC(=O)Nc1ccccc1Cl
inactive: dose: 100.0 mg/kg/injection, schedule: Q04DX003 (ip), vehicle: saline sonified 90 % of control | dose: 200.0 mg/kg/injection, schedule: Q04DX003 (ip), vehicle: saline sonified 95 % of control | dose: 400.0 mg/kg/injection, schedule: Q04DX003 (ip), vehicle: saline sonified 86 % of control

CC(Br)(C(Br)c1ccccc1)[N+](=O)[O-] (stereo unspecified)
inactive: dose: 50.0 mg/kg/injection, schedule: Q01DX009 (ip), vehicle: Klucel (hydroxypropylcellulose) (HPC) 123 % of control

C=C(Cl)CSCCCS
inactive: dose: 130.0 mg/kg/injection, schedule: Q01DX009 (ip), vehicle: saline 95 % of control | dose: 200.0 mg/kg/injection, schedule: Q01DX009 (ip), vehicle: saline 104 % of control | dose: 300.0 mg/kg/injection, schedule: Q01DX009 (ip), vehicle: saline 118 % of control

C(=Nc1ccc(-c2ccccc2)cc1)c1ccccc1
inactive: [2] 100 % of control | [3] 100 % of control | [4] 100 % of control

COC(=O)/C=C/c1ccc([N+](=O)[O-])cc1
inactive: [2] 118 % of control | [3] 113 % of control | [4] 109 % of control

O=C(Cn1ccc(O)cc1=O)c1cccs1
inactive: [1] 97 % of control | dose: 200.0 mg/kg/injection, schedule: Q01DX009 (ip), vehicle: saline with Tween-80 97 % of control | dose: 400.0 mg/kg/injection, schedule: Q01DX009 (ip), vehicle: saline with Tween-80 97 % of control
